Experimental data as given in patent US9943506B2, “BCL6 inhibitors as anticancer agents” (Cornell University, priority 2013, dated 2018).
Like-named read-outs stand apart in the source and are kept apart here.

Tests used:
Karpas 422 DLBCL cells = assay: Growth inhibition of DLBCL cells, Karpas 422; type: cell-based; conditions: Homo sapiens, read-out: GI 50 K422
Procedure: (§1) 50,000 cells per well were treated for 48 hours with different concentrations of the compounds in 96 well plates, using DMSO as a control. Then, viability was determined with Cell Titer Blue™ (Promega) and growth inhibition was calculated as the percentage of viable cells with respect to cells treated with DMSO alone. GI50 values were determined by dose-response curves.
(§2) 293T cells were grown in Dulbecco's modified Eagles medium supplemented with 10% fetal bovine serum (FBS) (Gemini Bio-Products, Woodland, Calif.) and 1% penicillin-streptomycin. DLBCL cell lines OCI-Ly1, OCI-Ly1-B50, OCI-Ly7, OCI-Ly10 and OCI-Ly19 were grown in 80% Iscove's medium, 20% FBS and penicillin G/streptomycin. DLBCL cell lines Toledo, Farage, SU-DHL4, DOHH-2, SC-1, RCK8, TMD8, HBL-1, Ly3, Karpas 422 and SU-DHL6 were cultured in 90% RPMI medium, 10% FBS, 2 mM glutamine, 10 mM Hepes and penicillin G/streptomycin. All cell lines were cultured at 37° C. in a humidified atmosphere of 5% CO2.

Ly3 DLBCL cells = assay: Growth inhibition of DLBCL cells, Ly3; type: cell-based; conditions: Bcl6 dependent, read-out: GI 50 Ly3
Procedure: as §1, §2

Toledo DLBCL cells = assay: Growth inhibition of DLBCL cells, Toledo; type: cell-based; conditions: Homo sapiens
Procedure: as §1, §2

Ly4 DLBCL cells = assay: Growth inhibition of DLBCL cells, Ly4; type: cell-based; conditions: Table 9; Bcl6 independent; read-out: GI 50 Ly4
Procedure: as §1

Ly1 DLBCL cells = assay: Growth inhibition of DLBCL cells, Ly1; type: cell-based; conditions: Bcl6 dependent, read-out: GI 50 Ly1
Procedure: as §1, §2

SUDHL6 DLBCL cells = assay: Growth inhibition of DLBCL cells, SUDHL6; type: cell-based; conditions: Homo sapiens, SU-DHL-6
Procedure: as §1, §2

Ly1B50 DLBCL cells = assay: Growth inhibition of DLBCL cells, Ly1B50; type: cell-based; conditions: Bcl6 independent, read-out: GI 50 Ly1B50
Procedure: as §1, §2

Ly10 DLBCL cells = assay: Growth inhibition of DLBCL cells, Ly10; type: cell-based; conditions: Table 9, Bcl6 dependent, read-out: GI 50 Ly10
Procedure: as §1, §2

Ly7 DLBCL cells = assay: Growth inhibition of DLBCL cells, Ly7; type: cell-based
Procedure: as §1, §2

WSU-DLCL2 DLBCL cells = assay: Growth inhibition of DLBCL cells, WSU-DLCL2; type: cell-based; conditions: Homo sapiens, WSUDLCL2, Bcl6 independent, read-out: GI 50 WSUDLCL2
Procedure: as §1

BCL6-BTB = BCL6-BTB (Homo sapiens, UniProt P41182); assay: MicroScale Thermophoresis binding to BCL6-BTB; conditions: Table 10
Procedure: BCL6 is also required for normal development of germinal center (GC) B-cells.
Recombinant BCL6-BTB was labeled using the RED-NHS Labeling kit (NanoTemper Technologies). […] The label:protein ratio was determined using photometry at 650 nm and Bradford reagent. […] The labeled BCL6-BTB was adjusted to 400 nM with PBS (Thermo) buffer supplemented with 0.05% Tween-80 (Fisher scientific). […] After 10 min incubation, approximately 4 μL of each solution was filled into Monolith NT Standard Treated Capillaries (NanoTemper Technologies GmbH). Thermophoresis was measured using a Monolith NT.115 instrument (NanoTemper Technologies GmbH) at an ambient temperature of 25° C. with 5 s/30 s/5 s laser off/on/off times, respectively. Instrument parameters were adjusted with 90% LED power and 40% MST power. Data of three independent experiments were analyzed (NT.Analysis software version 1.5.41, NanoTemper Technologies) using the signal from Thermophoresis.

[1] = Table 9, Bcl6 independent, read-out: GI 50 Toledo
[2] = Table 9, Bcl6 dependent, read-out: GI 50 SUDHL6
[3] = Table 10, BCL6 dependent, read-out: GI50 SUDHL6
[4] = Table 9, Bcl6 dependent, read-out: GI 50 Ly7
[5] = Table 4, Bcl6 independent, read-out: GI 50 Toledo
[6] = Table 4, Bcl6 dependent, read-out: GI 50 SUDHL6
[7] = Table 4, Bcl6 dependent, read-out: GI 50 Ly7

SMILES | GI50 (Karpas 422 DLBCL cells; Table 9, Bcl6 independent) | GI50 (Ly3 DLBCL cells; Table 9) | GI50 (Toledo DLBCL cells; [1]) | GI50 (Toledo DLBCL cells; Table 10, BCL6 independent) | GI50 (Ly4 DLBCL cells) | GI50 (Ly1 DLBCL cells; Table 9) | GI50 (SUDHL6 DLBCL cells; [2]) | GI50 (SUDHL6 DLBCL cells; [3]) | GI50 (Ly1B50 DLBCL cells; Table 9) | GI50 (Ly10 DLBCL cells) | GI50 (Ly7 DLBCL cells; [4]) | GI50 (Ly7 DLBCL cells; Table 10, BCL6 dependent) | GI50 (Karpas 422 DLBCL cells; Table 4, Bcl6 independent) | GI50 (Ly3 DLBCL cells; Table 4) | GI50 (Toledo DLBCL cells; [5]) | GI50 (Ly1 DLBCL cells; Table 4) | GI50 (SUDHL6 DLBCL cells; [6]) | GI50 (Ly1B50 DLBCL cells; Table 4) | GI50 (Ly7 DLBCL cells; [7]) | GI50 (WSU-DLCL2 DLBCL cells; Table 4) | further results
O=C(CN1C(=O)C(=O)c2cc(Cl)ccc21)OCc1ccc(Cl)cc1 [Compound 355] | 38 µM | 54 µM | 35 µM | 45 ± 7 µM | 81 µM | 37 µM | 1 µM | 42 ± 10 µM | 55 µM | 62 µM | 45 µM | 43 ± 3 µM |  |  |  |  |  |  |  |  | GI50 (WSU-DLCL2 DLBCL cells; Table 9): 52 µM
O=C(CN1C(=O)C(=O)c2cc(Cl)ccc21)OCc1ccc(F)cc1 [Compound 357] | 58 µM | 79 µM | 51 µM | 50 ± 1 µM | > 125 µM | 81 µM | 1 µM | 22 ± 3 µM | 56 µM | 60 µM | 25 µM | 30 ± 10 µM |  |  |  |  |  |  |  |  | GI50 (WSU-DLCL2 DLBCL cells; Table 9): 100 µM
O=C(CN1C(=O)C(=O)c2cc(Cl)ccc21)OCc1cccc(F)c1 [Compound 358] | > 125 µM | > 125 µM | 69 µM | 82 ± 20 µM | > 125 µM | > 125 µM | 2 µM | 27 ± 4 µM | > 125 µM | > 125 µM | 20 µM | 40 ± 10 µM |  |  |  |  |  |  |  |  | GI50 (WSU-DLCL2 DLBCL cells; Table 9): > 125 µM
O=C(CN1C(=O)C(=O)c2cc(Cl)ccc21)OCc1ccsc1 [Compound 367] |  |  |  | 53 ± 10 µM |  |  |  | 15 ± 7 µM |  |  |  | 22 ± 4 µM |  |  |  |  |  |  |  |  | Kd (BCL6-BTB): 324 ± 34 µM
Cc1cccc(COC(=O)CN2C(=O)/C(=C3\SC(=S)N(CCC(=O)O)C3=O)c3cc(Cl)ccc32)c1 [Compound 374] |  |  |  |  |  |  |  |  |  |  |  |  | > 125 µM | > 125 µM | > 125 µM | > 125 µM | 48 ± 17 µM | > 125 µM | > 125 µM | 99 ± 20 µM | 
O=C(O)CCN1C(=O)/C(=C2/C(=O)N(CC(=O)OCc3ccc(C(F)(F)F)cc3)c3ccc(Cl)cc32)SC1=S [Compound 375] |  |  |  |  |  |  |  |  |  |  |  |  | > 125 µM | > 125 µM | > 125 µM | > 125 µM | 29 ± 14 µM | > 125 µM | > 125 µM | > 125 µM | 
O=C(O)CCN1C(=O)/C(=C2/C(=O)N(CC(=O)OCc3ccc(F)cc3)c3ccc(Cl)cc32)SC1=S [Compound 377] |  |  |  |  |  |  |  |  |  |  |  |  | > 125 µM | > 125 µM | > 125 µM | > 125 µM | 104 µM | > 125 µM | > 125 µM | > 125 µM | 
O=C(O)CCN1C(=O)/C(=C2/C(=O)N(CC(=O)OCc3cccc(F)c3)c3ccc(Cl)cc32)SC1=S [Compound 378] |  |  |  |  |  |  |  |  |  |  |  |  | > 125 µM | > 125 µM | > 125 µM | > 125 µM | 53.4 µM | > 125 µM | > 125 µM | > 125 µM | 
O=C(O)CCN1C(=O)/C(=C2/C(=O)N(CC(=O)OCc3cccc(C(F)(F)F)c3)c3ccc(Cl)cc32)SC1=S [Compound 380] |  |  |  |  |  |  |  |  |  |  |  |  | 69 ± 4 µM | 71 ± 18 µM | 93 ± 23 µM | 106 ± 20 µM | 18 ± 7 µM | 68 µM | 94 ± 19 µM | 67 ± 12 µM | 
C[C@@H](OC(=O)CN1C(=O)/C(=C2\SC(=S)N(CCC(=O)O)C2=O)c2cc(Cl)ccc21)c1ccccc1 [Compound 381] |  |  |  |  |  |  |  |  |  |  |  |  | > 125 µM | > 125 µM | > 125 µM | > 125 µM | 22 ± 8 µM | > 125 µM | > 125 µM | > 125 µM | 
